Assay results as given in patent US9066861B2 (priority 2009, dated 2015).
Blank lines part the entries; values can stand above or below the compound they belong to.

Assay: Assay (%) test of APIs in cream, stability study, HPLC method
Assay type: physicochemical
Method: The stability of the product is confirmed by the stability studies performed for 3/6 months as per ICH guidelines.
APIs-stability experiments were carried out (see tables 3-20) using several products that are representative of the present invention. Tests were carried out to observe (or measure as appropriate) the physical appearance of the product, the pH value and assay of the APIs over a period of time. […] Betamethasone Valerate—0.12% (w/w) • ii. Fluticasone Propionate—0.05% (w/w) • iii. Mometasone Furoate—0.1% (w/w) • iv. Dexamethasone Acetate—0.1% (w/w) • v. Hydrocortisone Acetate—1.0% (w/w) • vi. Clobetasol Propionate—0.05% (w/w) • vii. Beclomethasone Dipropionate—0.025% (w/w) • viii. Betamethasone Dipropionate—0.05% (w/w) wherein all percentages are with respect to the final formulation.
The product used for the Stability Studies tests contained approximately 10% extra APIs (overages).

Assay (%) (in cream Batch No. SFB-01, 25° C. 60% RH, 1st Month): 108.05% | Assay (%) (in cream Batch No. SFB-01, 25° C. 60% RH, 2nd Month): 108.00% | Assay (%) (in cream Batch No. SFB-01, 25° C. 60% RH, 3rd Month): 107.90% | Assay (%) (in cream Batch No. SFB-01, 30° C. 65% RH, 1st Month): 108.11% | Assay (%) (in cream Batch No. SFB-01, 30° C. 65% RH, 2nd Month): 107.96% | Assay (%) (in cream Batch No. SFB-01, 30° C. 65% RH, 3rd Month): 107.68% | Assay (%) (in cream Batch No. SFB-01, 40° C. 75% RH, 1st Month): 108.04% | Assay (%) (in cream Batch No. SFB-01, 40° C. 75% RH, 2nd Month): 107.98% | Assay (%) (in cream Batch No. SFB-01, 40° C. 75% RH, 3rd Month): 107.88% | Assay (%) (in cream Batch No. SFB-01, Freezthaw, 1st Month): 107.58% | Assay (%) (in cream Batch No. SFB-01, Initial): 108.12% | Assay (%) (in cream Batch No. SFB-01, Temperature cycling, 1st Month): 107.68%
Compound: CCC(=O)OCC(=O)[C@@]1(OC(=O)CC)[C@@H](C)C[C@H]2[C@@H]3CCC4=CC(=O)C=C[C@]4(C)[C@@]3(Cl)[C@@H](O)C[C@@]21C [Beclomethasone dipropionate]

Assay (%) (in cream Batch No. SBV-01, 25° C. 60% RH, 1st Month): 109.54% | Assay (%) (in cream Batch No. SBV-01, 25° C. 60% RH, 2nd Month): 109.42% | Assay (%) (in cream Batch No. SBV-01, 25° C. 60% RH, 3rd Month): 109.21% | Assay (%) (in cream Batch No. SBV-01, 30° C. 65% RH, 1st Month): 109.48% | Assay (%) (in cream Batch No. SBV-01, 30° C. 65% RH, 2nd Month): 109.42% | Assay (%) (in cream Batch No. SBV-01, 30° C. 65% RH, 3rd Month): 109.20% | Assay (%) (in cream Batch No. SBV-01, 40° C. 75% RH, 1st Month): 109.51% | Assay (%) (in cream Batch No. SBV-01, 40° C. 75% RH, 2nd Month): 109.32% | Assay (%) (in cream Batch No. SBV-01, 40° C. 75% RH, 3rd Month): 109.11% | Assay (%) (in cream Batch No. SBV-01, Freezthaw, 1st Month): 108.25% | Assay (%) (in cream Batch No. SBV-01, Initial): 109.56% | Assay (%) (in cream Batch No. SBV-01, Temperature cycling, 1st Month): 109.51%
Compound: CCCCC(=O)O[C@]1(C(=O)CO)[C@@H](C)C[C@H]2[C@@H]3CCC4=CC(=O)C=C[C@]4(C)[C@@]3(F)[C@@H](O)C[C@@]21C [Betamethasone Valerate]

Assay (%) (in cream Batch No. SPC-01, 25° C. 60% RH, 1st Month): 107.40% | Assay (%) (in cream Batch No. SPC-01, 25° C. 60% RH, 2nd Month): 107.34% | Assay (%) (in cream Batch No. SPC-01, 25° C. 60% RH, 3rd Month): 107.30% | Assay (%) (in cream Batch No. SPC-01, 25° C. 60% RH, 6th Month): 107.24% | Assay (%) (in cream Batch No. SPC-01, 30° C. 65% RH, 1st Month): 107.38% | Assay (%) (in cream Batch No. SPC-01, 30° C. 65% RH, 2nd Month): 107.32% | Assay (%) (in cream Batch No. SPC-01, 30° C. 65% RH, 3rd Month): 107.29% | Assay (%) (in cream Batch No. SPC-01, 30° C. 65% RH, 6th Month): 107.22% | Assay (%) (in cream Batch No. SPC-01, 40° C. 75% RH, 1st Month): 107.34% | Assay (%) (in cream Batch No. SPC-01, 40° C. 75% RH, 2nd Month): 107.22% | Assay (%) (in cream Batch No. SPC-01, 40° C. 75% RH, 3rd Month): 107.15% | Assay (%) (in cream Batch No. SPC-01, 40° C. 75% RH, 6th Month): 107.10% | Assay (%) (in cream Batch No. SPC-01, Freezthaw, 1st Month): 107.11% | Assay (%) (in cream Batch No. SPC-01, Initial): 107.41% | Assay (%) (in cream Batch No. SPC-01, Temperature cycling, 1st Month): 107.21%
Compound: CCC(=O)O[C@]1(C(=O)CCl)[C@@H](C)C[C@H]2[C@@H]3CCC4=CC(=O)C=C[C@]4(C)[C@@]3(F)[C@@H](O)C[C@@]21C [Clobetasol Propionate]

Assay (%) (in cream Batch No. SFC-01, 25° C. 60% RH, 1st Month): 108.54% | Assay (%) (in cream Batch No. SFC-01, 25° C. 60% RH, 2nd Month): 108.42% | Assay (%) (in cream Batch No. SFC-01, 25° C. 60% RH, 3rd Month): 108.21% | Assay (%) (in cream Batch No. SFC-01, 25° C. 60% RH, 6th Month): 108.10% | Assay (%) (in cream Batch No. SFC-01, 30° C. 65% RH, 1st Month): 108.48% | Assay (%) (in cream Batch No. SFC-01, 30° C. 65% RH, 2nd Month): 108.42% | Assay (%) (in cream Batch No. SFC-01, 30° C. 65% RH, 3rd Month): 108.20% | Assay (%) (in cream Batch No. SFC-01, 30° C. 65% RH, 6th Month): 108.11% | Assay (%) (in cream Batch No. SFC-01, 40° C. 75% RH, 1st Month): 108.51% | Assay (%) (in cream Batch No. SFC-01, 40° C. 75% RH, 2nd Month): 108.32% | Assay (%) (in cream Batch No. SFC-01, 40° C. 75% RH, 3rd Month): 108.11% | Assay (%) (in cream Batch No. SFC-01, 40° C. 75% RH, 6th Month): 108.08% | Assay (%) (in cream Batch No. SFC-01, Freezthaw, 1st Month): 108.15% | Assay (%) (in cream Batch No. SFC-01, Initial): 108.56% | Assay (%) (in cream Batch No. SFC-01, Temperature cycling, 1st Month): 108.51%
Compound: CCC(=O)O[C@]1(C(=O)SCF)[C@H](C)C[C@H]2[C@@H]3C[C@H](F)C4=CC(=O)C=C[C@]4(C)[C@@]3(F)[C@@H](O)C[C@@]21C [Fluticasone Propionate]

Assay (%) (in cream Batch No. HAS-01, 25° C. 60% RH, 1st Month): 107.14% | Assay (%) (in cream Batch No. HAS-01, 25° C. 60% RH, 2nd Month): 107.11% | Assay (%) (in cream Batch No. HAS-01, 25° C. 60% RH, 3rd Month): 107.10% | Assay (%) (in cream Batch No. HAS-01, 30° C. 65% RH, 1st Month): 107.14% | Assay (%) (in cream Batch No. HAS-01, 30° C. 65% RH, 2nd Month): 107.12% | Assay (%) (in cream Batch No. HAS-01, 30° C. 65% RH, 3rd Month): 107.09% | Assay (%) (in cream Batch No. HAS-01, 40° C. 75% RH, 1st Month): 107.14% | Assay (%) (in cream Batch No. HAS-01, 40° C. 75% RH, 2nd Month): 107.12% | Assay (%) (in cream Batch No. HAS-01, 40° C. 75% RH, 3rd Month): 107.05% | Assay (%) (in cream Batch No. HAS-01, Freezthaw, 1st Month): 107.14% | Assay (%) (in cream Batch No. HAS-01, Initial): 107.15% | Assay (%) (in cream Batch No. HAS-01, Temperature cycling, 1st Month): 107.11%
Compound: CC(=O)OCC(=O)[C@@]1(O)CC[C@H]2[C@@H]3CCC4=CC(=O)CC[C@]4(C)[C@H]3[C@@H](O)C[C@@]21C [Hydrocortisone Acetate]
